Test results taken from patent US20220079952A1, “Uses of Radiation and Benzodiazepine Derivatives in Cancer Therapies” (Emory University, priority 2019, published 2022).

Tests used:
[1] = tested on: B16F10 cells; experiment: Melanoma cell viability, 48 hours treatment, B16F10; assay type: cell-based, murine; conditions: for effect on cell viability: B16F10; for IC50: Mus musculus, B16-F10, B16F10, 48 hours, read-out: IC50, reduction in cell viability
Description: (§1) The electrophysiology whole-cell patch clamp experiments occur within a minute. […] To determine their effect on melanoma cell survival, A375 and B16F10 were treated with QH-II-066, KRM-II-08, or diazepam for 48 hours.

[2] = tested on: A375 cells; experiment: Melanoma cell viability, 48 hours treatment, A375; assay type: cell-based, human; conditions: for effect on cell viability: A375; for IC50: Homo sapiens, A-375, A375, 48 hours, read-out: IC50, reduction in cell viability
Description: as §1

[3] = tested on: GABAAR; experiment: Whole-cell patch clamp electrophysiology in B16F10 melanoma cells; assay type: cell-based, murine; conditions: for EC50: read-out: EC50, enhancement of the effect of GABA, [GABA]=1 μM, benzodiazepine 0-10 μM
Description: (§2) GABAAR is an anion (Cl—) channel that changes the transmembrane potential of cells, either depolarizing or hyperpolarizing depending upon channel directionality and activity of other membrane transport protein. To establish autonomous expression of GABAAR subunits in melanoma cell lines results in assembly of a functional ligand-dependent channel, electrophysiological testing was performed in human melanoma (A375) and murine (B16F10) lines. Patch clamp currents were recorded for A375 and B16F10. […] A fully functional benzodiazepine binding site requires assembly of a GABAAR with a canonical αβαβγ subunit stoichiometry.
(§3) Two benzodiazepines were tested (QH-II-066 and KRM-II-08). QH-II-066 and KRM-II-08 differ in having H and F at R2′ of the benzene ring of benzodiazepine, respectively.

[4] = tested on: GABAAR; experiment: Whole-cell patch clamp electrophysiology in A375 melanoma cells; assay type: cell-based, human; conditions: for mode of action at GABAAR from electrophysiology: A375 and B16F10 cells; for EC50: read-out: EC50, enhancement of the effect of GABA, [GABA]=1 μM, benzodiazepine 0-10 μM
Description: as §2, §3

[5] = tested on: medulloblastoma cancer cells; conditions: sustained incubation; cited from earlier work
[6] = tested on: A375 and B16F10 cells; experiment: p53 expression and mitochondrial transmembrane potential in melanoma cells; assay type: cell-based, human and murine
Description: Changes induced by the benzodiazepine as a consequence of creating a net efflux of chloride anion, included an upregulation of TP53 and a depolarization of the mitochondrial transmembrane potential, ultimately resulting in apoptosis via the intrinsic mitochondria-mediated pathway. Thus, Experiments were performed to determine if benzodiazepine elicited a similar response in A375 and B16F10 cells.

[7] = tested on: B16F10-GP tumor; experiment: B16F10-GP syngeneic melanoma murine model, bilateral flank tumors, tumor volume; assay type: in vivo, C57BL/6 mice
Description: The clinical observation of improved outcome for RT-ICI was analyzed using a murine model. B16F10-GP cells (0.5×10^5) were implanted in both right and left flanks of C57BL/6 mice (FIG. 1A). A single dose of radiation at 10 Gy was delivered to the right flank only using a 0.5 cm bolus material, on Day 10 after implanting the melanoma cells. Day 10 was chosen to allow for growth of tumor cells in flanks to the point where they became palpable. […] Anti-PD-L1 was given by intraperitoneal injection every third day.
Since melanoma cell viability in vitro was impaired by benzodiazepines QH-II-066 and KRM-II-08, experiments were performed to determine if benzodiazepine had anti-tumor activity in vivo. […] Given that immune checkpoint inhibitor efficacy is enhanced by radiation therapy, experiments were performed to determine whether RT combined with QH-II-066 synergize to control ipsilateral and abscopal tumor volume using the B16F10-GP syngeneic melanoma murine model. B16F10-GP melanoma cells were implanted (0.5×10^5) in both right and left flanks of C57BL/6 mice (FIG. 3B). A single dose of radiation (either 10 or 5 Gy) was delivered to the right flank on Day 10 after implanting of B16F10-GP cells. […] There was no difference when using different radiation doses (10 or 5 Gy).
Having observed that QH-II-066 could sensitize a melanoma tumor to radiation and that expression of genes with roles in the cytokine:cytokine receptor interaction pathway was enhanced, experiments were performed to determine if QH-II-066 was capable of potentiating the programmed death ligand 1 immune checkpoint inhibitor (anti-PD-L1). B16F10-GP melanoma cells were implanted in both the right and left flanks of C57BL/6 mice. Day 10 in both the right and left flanks injected i.p.: (i) QH-II-066 (10 mg/kg), then every day for seven days; (ii) anti-PD-L1 (200 μg), then every third day thereafter; (iii) QH-II-066 (10 mg/kg) and anti-PD-L1 (200 μg) at time and frequency detailed for monotherapy treatment groups (FIG. 5).
Having observed potentiation of radiation and anti-PD-L1 by QH-II-066 individually, there might be a more significant tumor response if we administered a ‘combo’ consisting of radiation (5 Gy), anti-PD-L1, plus QH-II-066. As before, B16F10-GP melanoma cells were implanted in both the right and left flanks of C57BL/6 mice (FIG. 5). The following experimental groups were tested: (i) vehicle alone control; (ii) QH-II-066 alone (10 mg/kg); (iii) a single morning dose of radiation (5 Gy) delivered to the right flank, followed by evening dose of QH-II-066 (10 mg/kg); (iv) anti-PD-L1 plus QH-II-066; (v) a single morning dose of radiation (5 Gy) delivered to the right flank, followed by an evening dose of anti-PD-L1; (vi) a triple or combo therapy, consisting of a single morning dose of radiation (5 Gy) delivered to the right flank, followed by evening doses of anti-PD-L1 plus QH-II-066. After initial i.p. injection of QH-II-066 on Day 10, QH-II-066 was injected i.p. every day for seven days; while anti-PD-L1 was injected i.p. every third day thereafter.
B16F10-GP cell line was grown in Dulbecco's Modified Eagle's medium (DMEM) supplemented with 10% Fetal Bovine Serum, 100 U/mL penicillin and 100 μg/mL streptomycin, 2 mM glutamine. Cells were cultured at 37° C. with 5% CO2.
B16F10-GP melanoma cells ([…]) were implanted in matrigel (25%) on right and left flank of 6-8 week old female C57BL/6 mice (Jackson Laboratories, Bar Harbor, Me.). […]

[8] = tested on: CD8+ T cells in B16F10-GP tumors; experiment: Immunophenotyping of tumor infiltrating lymphocytes of bilateral B16F10-GP tumors by flow cytometry; assay type: in vivo, C57BL/6 mice
Description: Mice were sacrificed and tumor infiltrating lymphocytes (TILs) were isolated, stained, and analyzed using flow cytometry. For cytokine analysis, TILs were stimulated with GP33 peptide for 6 hours in presence of GolgiStop™ and GolgiPlug™ and analyzed using flow cytometry. Tumor weight and Lymphocyte number per gram tumor.
To determine whether these apparent synergistic effects were mediated by an enhanced immune response, immunophenotyping of bilateral tumors was performed. […] (FIG. 4A-4E).

[9] = non-human primates, previously tested; cited from earlier work

| Structure (SMILES) | effect on cell viability [1] | effect on cell viability [2] | EC50 [3] [nM] | effectiveness in impairing cell viability versus diazepam [5] | IC50 [1] [nM] | mode of action at GABAAR from electrophysiology [4] | EC50 ([4]; A375 cells) [nM] | IC50 [2] [nM] | other results |
| --- | --- | --- | --- | --- | --- | --- | --- | --- | --- |
| CC(=O)[C@H]1CC[C@H]2[C@@H]3CC[C@H]4C[C@H](O)CC[C@]4(C)[C@H]3CC[C@]12C [Allopregnanolone, allopregnanolone, reference compound] | does not impair | does not impair | – | – | – | – | – | – | – |
| NCCCC(=O)O [GABA, gamma-aminobutyric acid, reference compound] | – | – | – | – | – | – | – | – | maximal response to GABA (current) ([3]; patch clamp, n=6): −430±70 pA; maximal response to GABA (current) ([4]; A375 cells, patch clamp, n=8): −230±41 pA |
| C#Cc1ccc2c(c1)C(c1ccccc1F)=NCC(=O)N2C [KRM-II-08, 7-ethynyl-5-(2-fluorophenyl)-1-methyl-1,3-dihydro-2H-benzo[e][1,4]diazepin-2-one] | – | – | 200 ± 100 | more than an order of magnitude improved effectiveness | 6100 ± 800 | GABAAR positive allosteric modulators | 1700 ± 200 | 1330 ± 80 | – |
| C#Cc1ccc2c(c1)C(c1ccccc1)=NCC(=O)N2C [QH-II-066, 7-ethynyl-1-methyl-5-phenyl-1,3-dihydro-2H-benzo[e][1,4]diazepin-2-one] | – | – | 160 ± 90 | more than an order of magnitude improved effectiveness | 8200 ± 900 | GABAAR positive allosteric modulators | 900 ± 400 | 2700 ± 200 | expression of p53 [6]: enhanced expression of p53; time to depolarization of the mitochondrial transmembrane potential [6]: ≤ 10 min; ipsilateral and abscopal tumor effect, combo of radiation, anti-PD-L1 and QH-II-066 ([7]; 5 Gy right flank Day 10, then anti-PD-L1 200 μg every third day plus QH-II-066 10 mg/kg daily 7 days): complete tumor regression in some animals; B16F10-GP tumor growth, monotherapy dose response ([7]; 10, 25 and 50 mg/kg i.p. daily for a week, negligible difference between 25 and 50 mg/kg): dose-dependent reduction; anti-tumor effect on ipsilateral and contralateral tumor, combination with radiation therapy ([7]; 10 or 5 Gy right flank Day 10, then QH-II-066 10 mg/kg daily 7 days): strongly synergistic anti-tumor effect; tumor volume, dual therapy QH-II-066 and anti-PD-L1 ([7]; QH-II-066 10 mg/kg daily 7 days plus anti-PD-L1 200 μg every third day): most significant reduction in tumor volume; tumor volume, monotherapy ([7]; QH-II-066 10 mg/kg i.p. daily 7 days or anti-PD-L1 200 μg i.p. every third day, from Day 10): comparable reductions in tumor volume; CD8+ T cell infiltration of ipsilateral tumor, radiation in combination with QH-II-066 ([8]; 10 or 5 Gy plus QH-II-066, compared to vehicle): enhanced infiltration of CD8+ T cells; CD8+ T cell infiltration of tumor, QH-II-066 alone ([8]; QH-II-066 10 mg/kg alone, compared to vehicle): did not induce CD8+ T cell infiltration; antigen-specific, poly-functional T cells (expressing IFN-γ and TNF-α) in ipsilateral and contralateral tumors ([8]; ipsilateral radiation therapy + systemic QH-II-066): significant increase; adverse side effects or toxicity [9]: without any adverse side effects or toxicity |
| CN1C(=O)CN=C(c2ccccc2)c2cc(Cl)ccc21 [diazepam, reference compound] | no effect | no effect | – | – | – | – | – | – | – |
